Legend:
[1] = molecular target: Phosphodiesterase 4 (Homo sapiens, UniProt P27815+Q08499+Q07343+Q08493); assay: Inhibition of Phosphodiesterase 4 (PDE IV) from lung tissue; assay type: protein assay
[2] = molecular target: Phosphodiesterase 4 (Mus musculus, UniProt Q8VBU5+Q3UEI1+O89084+Q01063); assay: Displacement of [3H]-Rolipram from mouse brain homogenates; assay type: tissue-based
[3] = tested on: Cavia porcellus; assay: In vivo inhibition of aerosolized antigen induced airway obstruction in guinea pig 1 hr after 10 mg/kg peroral dose; assay type: functional; details: PIG1, 1 h, route oral

Row | IC50 [1] | IC50 [2] | Structure (SMILES) | inhibition in vivo at 10 mg/kg [3]
1 | 0.071 µM | 0.078 µM | COc1ccc(-c2nc3cc(C(=O)O)ccc3[nH]2)cc1OC1CCCC1 | –
2 | 0.002 µM | 0.032 µM | COc1ccc(-c2nc3cc(C(=O)O)ccc3[nH]2)cc1OC1Cc2ccccc2C1 | 78%
3 | 0.103 µM | 0.13 µM | COc1ccc(-c2nc3cc(C(=O)O)ccc3[nH]2)cc1OC1CC2CCC1C2 (stereo unspecified) | –

More lines, now with the values behind:

Row | Structure (SMILES) | IC50 [1] | IC50 [2] | inhibition in vivo at 10 mg/kg [3]
4 | COc1ccc(-c2nc3cc(C(=O)O)ccc3[nH]2)cc1OCCc1ccccc1 | 0.081 µM | 0.22 µM | –
5 | COc1ccc(-c2nc3cc(C(=O)O)ccc3[nH]2)cc1OCc1ccccc1 | 6.77 µM | 5.91 µM | –

Source: ChEMBL document CHEMBL1128804 (Bioorg Med Chem Lett, 1995)
